Assay results: ChEMBL document CHEMBL5465560, “Selectivity Literature for EUbOPEN Chemogenomic Library” (2024)
Residue numbers refer to the chain shown, from its start.

Tests used:
Conditions in all cases: at 1 µM
[1] = system: T1, Receptor-type tyrosine-protein kinase FLT3 (Homo sapiens), P36888 [D835V]; assay: (§1) Selectivity interaction (KinomeScan (DiscoverX)) EUB0001049a FLT3
T1 sequence (whole entry): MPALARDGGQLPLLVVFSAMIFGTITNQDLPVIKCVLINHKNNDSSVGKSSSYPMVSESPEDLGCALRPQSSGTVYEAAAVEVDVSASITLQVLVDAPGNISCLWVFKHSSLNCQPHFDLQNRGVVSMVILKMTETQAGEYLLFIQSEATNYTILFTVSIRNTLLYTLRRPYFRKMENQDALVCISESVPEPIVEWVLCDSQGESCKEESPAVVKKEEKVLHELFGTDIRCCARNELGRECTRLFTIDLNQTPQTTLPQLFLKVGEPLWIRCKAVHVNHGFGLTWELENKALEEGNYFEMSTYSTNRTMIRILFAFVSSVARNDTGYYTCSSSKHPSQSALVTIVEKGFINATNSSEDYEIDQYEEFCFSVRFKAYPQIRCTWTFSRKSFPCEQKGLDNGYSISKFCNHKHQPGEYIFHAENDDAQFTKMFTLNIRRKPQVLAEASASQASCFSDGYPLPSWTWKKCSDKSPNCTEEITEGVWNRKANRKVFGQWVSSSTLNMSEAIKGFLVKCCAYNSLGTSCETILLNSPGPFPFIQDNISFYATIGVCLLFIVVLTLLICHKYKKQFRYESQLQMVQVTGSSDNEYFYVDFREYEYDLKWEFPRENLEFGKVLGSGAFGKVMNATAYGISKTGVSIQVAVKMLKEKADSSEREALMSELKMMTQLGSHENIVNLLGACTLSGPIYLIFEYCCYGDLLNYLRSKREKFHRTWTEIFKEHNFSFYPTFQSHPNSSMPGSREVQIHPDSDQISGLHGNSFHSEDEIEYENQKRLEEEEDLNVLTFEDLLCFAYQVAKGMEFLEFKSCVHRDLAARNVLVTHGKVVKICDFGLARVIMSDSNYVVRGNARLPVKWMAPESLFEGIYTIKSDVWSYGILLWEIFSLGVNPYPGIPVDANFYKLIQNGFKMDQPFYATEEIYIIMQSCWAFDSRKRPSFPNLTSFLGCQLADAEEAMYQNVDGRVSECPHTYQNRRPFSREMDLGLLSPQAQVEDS

[2] = system: T2, Receptor-type tyrosine-protein kinase FLT3 (Homo sapiens), P36888 [R834Q]; assay: as §1
T2 sequence (whole entry): T1 sequence (whole entry) with R834Q, V835D

[3] = system: T3, Receptor-type tyrosine-protein kinase FLT3 (Homo sapiens), P36888 [D835Y]; assay: as §1
T3 sequence (whole entry): T1 sequence (whole entry) with V835Y

COc1cc(Nc2nc(C)cc(-c3cnn4nc(OC)ccc34)n2)cc(C(F)(F)F)c1
% of control [1]: 86%
% of control [2]: 100%
% of control [3]: 79%
